Legend:
αβ (1:1) GluClRs [1] = biological target: T1, αβ (1:1) GluClRs (Haemonchus contortus, UniProt O46124+P91730); assay: Two-electrode voltage clamp in oocytes, αβ (1:1) GluClRs; type: cell-based, H. contortus
Protocol: cDNAs encoding the α (avr-14b) (pcDNA 3.1+) or β (pUNIV) GluClR subunits of H. contortus were nuclear injected into oocytes (NASCO, WI USA) or transfected into HEK293AD cells (CellBank Australia) using a calcium phosphate-DNA co-precipitate method. Synapse formation between neurons and HEK293 cells was promoted by co-transfecting neuroligin 2A or 1B and the cDNA encoding CD4 surface antigen was also added to the transfection mixture so as to identify transfected cells. The oocytes and HEK cells were used for experiments 2–3 days after the introduction of the cDNAs. All experiments were done at room temperature (22 ± 1°C).
Xenopus laevis oocytes were harvested by surgical incision. The oocytes were then defolliculated with 1.5 mg/ml collagenase for 2 hours. Free oocytes were rinsed with calcium-free OR-2 solution containing (in mM) 82.5 NaCl, 2 KCl, 1 MgCl2, 5 HEPES, pH 7.4 and mature stage V or VI oocytes were isolated for experiments. The DNAs coding for α and β subunits were nuclear injected into the oocytes using a Nanoliter 2000 microinjector (WPI Inc) at a ratio of (α:β), 1:0, 0:1, 1:1 and 1:50. The total amount of injected DNA in all combinations was 400 ng ml^−1, including the 1:50 (α:β) combination (8 ng of DNA encoding the α and 392 ng of DNA encoding β subunits). Injected oocytes were incubated in ND96 storage solution (in mM) 96 NaCl, 2 KCl, 1 MgCl2.6H2O, 1.8 CaCl2, 5 HEPES, 50 μg ml^−1 gentamicin, 2.5 sodium pyruvate, 0.5 theophylline, pH 7.4 at 16°C for 2–3 days before experiment.
For the two-electrode voltage clamp recordings, each oocyte was secured in a cell bath that was continually perfused with ND96 recording solution (ND96 storage solution without pyruvate, theophylline and gentamicin). […] The two microelectrodes contained 3 M KCl and had resistances of 0.2–2 MΩ. Recordings were done using Clampex 10.2 software (Molecular Devices) at a clamped voltage of −40 mV. Currents were low-pass filtered at 200 Hz, sampled at 2 kHz using a Gene Clamp 500B amplifier and digitised by a Digidata 1440A interface. The IVM (IVM B1a) concentration-response experiments were standardised by using an application protocol that consisted of applying increasing concentrations of IVM for, respectively, 3 min, 3 min, 3 min, 2 min, 1 min, 1 min and 0.5 min.
Group data were analysed in SigmaPlot 13.0 using one-way ANOVAs, where p < 0.05 was taken as the significance threshold and expressed as mean ± SEM. Tests for normally distributed data are built into the SigmaPlot software. Confocal images were captured and analysed with Zen 2012 SP2 (Zeiss) software. Oocyte concentration-response data were fit to a Hill equation to obtain an EC50 and Hill co-efficient for each oocyte recording. […] Single channel recordings were analysed in QuB software. […]

[2] = test system: homomeric α (avr-14b) GluClRs; conditions: cited from earlier work
αβ (1:1) GluClRs [3] = biological target: T1, αβ (1:1) GluClRs; assay: Single channel recording, outside-out patches, αβ (1:1) GluClRs; type: cell-based, H. contortus; conditions: 2 μM glutamate plus 5 nM IVM
From the text: To explore whether a similar mechanism applies to β-containing GluClRs, we recorded single receptor currents in excised patches from cells transfected with either the α and β subunits (1:1) or the β subunit alone. […] By contrast, patches from cells transfected with the β subunit alone invariably opened to an amplitude of 0.4 pA (Fig 6C). Amplitude histograms confirmed two amplitude levels for αβ GluClRs and a single amplitude for the β GluClRs (Fig 6D). […] We infer that the αβ GluClRs that open to 0.7 pA likely contain a greater proportion of β subunits. This is consistent with β GluClRs having the smallest amplitude and α GluClRs having the greatest amplitude (1.8 pA) under similar recording conditions. The calculated conductance values for the corresponding amplitudes for αβ GluClRs was 15.2 pS and 8.9 pS and for the β GluClRs was 5.1 pS.
Single-channel currents were recorded from outside-out excised patches at a clamped potential of −70 mV. The single channel conductance was calculated by dividing the mean current by the net driving force at a clamped potential of ‐70 mV, after accounting for reversal and liquid junction potentials. Excised patches were continuously perfused via a gravity-fed double-barrelled glass tube, which contained extracellular bath solution containing (in mM), 140 NaCl, 5 KCl, 1 MgCl2, 2 CaCl2, 10 HEPES, and 10 D-glucose and titrated to pH 7.4. Glutamate and IVM were dissolved in this extracellular solution. Recording electrodes were pulled from borosilicate glass (G150F-3; Warner Instruments), coated with a silicone elastomer (Sylgard-184; Dow Corning) and heat-polished to a final tip resistance of 4–15 MΩ when filled with an intracellular solution containing (in mM) 145 CsCl, 2 MgCl2, 2 CaCl2, 10 HEPES, and 5 EGTA, pH 7.4. […] A 10 mM stock of IVM (Sigma-Aldrich) was dissolved in 100% DMSO and kept frozen at ‐20°C. Fresh working stocks of IVM at 5 nM were prepared by dissolving the appropriate quantity directly in extracellular solution. 100% DMSO when dissolved in extracellular solution alone at the same concentration as was present in working solutions containing 5 nM IVM had no effect on patches excised from cells transfected with GluClRs or from untransfected cells.
Currents were recorded using an Axopatch 200B amplifier (Molecular Devices), filtered at 5 kHz and digitized at 20 kHz using Clampex (pClamp 10 suite, Molecular Devices) via a Digidata 1440A digitizer.
Group data were analysed in SigmaPlot 13.0 using one-way ANOVAs, where p < 0.05 was taken as the significance threshold and expressed as mean ± SEM. Tests for normally distributed data are built into the SigmaPlot software. Confocal images were captured and analysed with Zen 2012 SP2 (Zeiss) software. Oocyte concentration-response data were fit to a Hill equation to obtain an EC50 and Hill co-efficient for each oocyte recording. These parameters were then averaged across multiple oocyte experiments of the same type. Single channel recordings were analysed in QuB software. […] Patches yielded between 30–250 individual active periods. […] The selected critical times eliminated periods of receptor desensitisation while retaining singe receptor active periods. Mean active period duration and intra-activation open probability was estimated from each patch. Group means were obtained by averaging across multiple patches for each recording condition.

T1 sequence (P91730 19-432): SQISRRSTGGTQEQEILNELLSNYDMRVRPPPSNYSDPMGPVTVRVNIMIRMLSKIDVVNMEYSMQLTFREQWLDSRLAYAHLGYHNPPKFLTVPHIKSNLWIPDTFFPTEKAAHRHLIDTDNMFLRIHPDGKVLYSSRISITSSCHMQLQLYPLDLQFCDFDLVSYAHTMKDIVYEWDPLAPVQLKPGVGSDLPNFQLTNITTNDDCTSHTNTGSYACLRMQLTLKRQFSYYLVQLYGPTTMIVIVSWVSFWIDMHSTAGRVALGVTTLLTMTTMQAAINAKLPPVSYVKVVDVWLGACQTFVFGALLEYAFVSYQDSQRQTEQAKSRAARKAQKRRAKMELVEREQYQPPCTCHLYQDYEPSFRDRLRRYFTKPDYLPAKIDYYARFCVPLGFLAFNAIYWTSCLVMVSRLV
T1 sequence (O46124 entry or part of it): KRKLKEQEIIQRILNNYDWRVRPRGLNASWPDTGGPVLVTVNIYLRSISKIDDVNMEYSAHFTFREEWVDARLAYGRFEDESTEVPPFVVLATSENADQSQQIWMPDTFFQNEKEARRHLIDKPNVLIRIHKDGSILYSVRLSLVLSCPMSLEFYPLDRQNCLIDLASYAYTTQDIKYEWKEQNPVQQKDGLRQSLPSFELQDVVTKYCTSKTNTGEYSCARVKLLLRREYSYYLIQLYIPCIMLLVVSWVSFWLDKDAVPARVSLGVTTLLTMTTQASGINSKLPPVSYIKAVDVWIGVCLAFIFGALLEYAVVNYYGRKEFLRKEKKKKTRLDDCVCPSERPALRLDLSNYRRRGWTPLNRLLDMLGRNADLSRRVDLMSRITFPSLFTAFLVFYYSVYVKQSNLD

Question: Which results are given for `CC[C@H](C)[C@H]1O[C@]2(CC[C@@H]1C)C[C@@H]1C[C@@H](C/C=C(\C)[C@@H](O[C@H]3C[C@H](OC)[C@@H](O[C@H]4C[C@H](OC)[C@@H](O)[C@H](C)O4)[C@H](C)O3)[C@@H](C)/C=C/C=C3\CO[C@@H]4[C@H](O)C(C)=C[C@@H](C(=O)O1)[C@]34O)O2` [IVM, Ivermectin]?
Answer: EC50 (αβ (1:1) GluClRs [1]; EC50, oocytes, cDNA injection ratio α:β 1:1, −40 mV): 86 ± 14 nM; Hill co-efficient (αβ (1:1) GluClRs [1]; oocytes, α:β 1:1, −40 mV): 1.0 ± 0.1; Emax (αβ (1:1) GluClRs [1]; read-out: maximal response, % of saturating glutamate response): 26%; time over which single receptor active periods increase in duration after exposure [2]: 1 to 2 min; increase in mean active period duration compared to 2 μM glutamate alone (αβ (1:1) GluClRs [3]): over 20 fold; increase in mean active period duration compared to 3 mM glutamate (αβ (1:1) GluClRs [3]): 6 fold; intra-activation open probability (PO) (αβ (1:1) GluClRs [3]): 0.83 ± 0.02; mean active period duration (αβ (1:1) GluClRs [3]; pooled): 876 ± 178 ms
